Data reported in ChEMBL document CHEMBL1201862, “PubChem BioAssay data set” (2004).
Calls of active or inactive are those of the source.

Columns and labels:
[1] = target: T1, Phosphomannomutase 2 (Homo sapiens, UniProt O15305); assay: Counter screen SAR assay for PMM2 inhibitors via a fluorescence intensity assay. [Related pubchem assays (depositor defined):AID1545, AID1574]
T1 sequence (O15305 whole entry): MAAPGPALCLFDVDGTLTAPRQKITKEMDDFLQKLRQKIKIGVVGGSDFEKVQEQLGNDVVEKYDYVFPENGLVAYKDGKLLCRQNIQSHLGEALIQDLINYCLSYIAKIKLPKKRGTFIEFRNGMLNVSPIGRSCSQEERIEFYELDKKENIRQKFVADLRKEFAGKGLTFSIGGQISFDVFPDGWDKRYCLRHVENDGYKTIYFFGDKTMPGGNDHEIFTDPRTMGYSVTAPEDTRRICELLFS

[2] = target: T2, Beta Lactamase (Pseudomonas aeruginosa, UniProt Q932Y6); assay: beta-lactamase reporter inhibitor potency, dose response, artefact control for NOD2-RIPK2 interaction inhibitor project, BLA reporter cells, FRET fluorescence (AID 651552); assay type: functional, cell-based
T2 sequence (Q932Y6 whole entry): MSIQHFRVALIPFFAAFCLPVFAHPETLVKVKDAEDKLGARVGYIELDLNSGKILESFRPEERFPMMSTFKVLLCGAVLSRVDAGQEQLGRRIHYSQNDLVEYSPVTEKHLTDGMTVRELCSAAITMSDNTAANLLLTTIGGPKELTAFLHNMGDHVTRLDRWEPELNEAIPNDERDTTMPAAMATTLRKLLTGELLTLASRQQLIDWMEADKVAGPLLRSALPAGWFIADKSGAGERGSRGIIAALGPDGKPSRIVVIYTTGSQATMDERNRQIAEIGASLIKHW

[3] = target: T3, Alkaline phosphatase, tissue-nonspecific isozyme (Homo sapiens, UniProt P05186); assay: human TNAP enzyme inhibitors, SAR follow-up, biochemical, luminescent, dose response (AID 1056)
T3 sequence (P05186 whole entry): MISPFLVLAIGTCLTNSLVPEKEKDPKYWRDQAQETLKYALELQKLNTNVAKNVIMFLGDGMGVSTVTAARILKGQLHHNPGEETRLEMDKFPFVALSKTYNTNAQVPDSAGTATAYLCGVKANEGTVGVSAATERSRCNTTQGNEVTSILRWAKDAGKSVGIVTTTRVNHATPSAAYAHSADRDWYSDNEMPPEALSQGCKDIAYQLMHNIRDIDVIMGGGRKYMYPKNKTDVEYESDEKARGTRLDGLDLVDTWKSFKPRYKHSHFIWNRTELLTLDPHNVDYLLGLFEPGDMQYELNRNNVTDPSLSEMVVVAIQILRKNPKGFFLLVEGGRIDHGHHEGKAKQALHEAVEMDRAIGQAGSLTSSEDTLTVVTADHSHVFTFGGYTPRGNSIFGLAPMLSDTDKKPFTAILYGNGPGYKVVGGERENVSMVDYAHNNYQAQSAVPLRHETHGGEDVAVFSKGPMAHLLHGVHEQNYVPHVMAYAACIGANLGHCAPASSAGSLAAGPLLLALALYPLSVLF

[4] = target: T2, Beta Lactamase; assay: beta-lactamase reporter inhibitor potency, dose response, artefact control for TLR9-MyD88 binding inhibitor project, BLA reporter cells, FRET fluorescence (AID 588341); assay type: cell-based;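 also: cell based assay in CHO-K1 cells stably expressing beta-lactamase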
[5] = target: T4, Hexokinase (Trypanosoma brucei, UniProt Q38C41); assay: Confirmation assay for inhibitors of Trypanosoma brucei hexokinase 1-Analogue-first series. [Related pubchem assays (depositor defined):AID1430, AID1632, AID2516, AID2560, AID2579, AID2600, AID449725, AID492951]; assay type: functional
T4 sequence (Q38C41 whole entry): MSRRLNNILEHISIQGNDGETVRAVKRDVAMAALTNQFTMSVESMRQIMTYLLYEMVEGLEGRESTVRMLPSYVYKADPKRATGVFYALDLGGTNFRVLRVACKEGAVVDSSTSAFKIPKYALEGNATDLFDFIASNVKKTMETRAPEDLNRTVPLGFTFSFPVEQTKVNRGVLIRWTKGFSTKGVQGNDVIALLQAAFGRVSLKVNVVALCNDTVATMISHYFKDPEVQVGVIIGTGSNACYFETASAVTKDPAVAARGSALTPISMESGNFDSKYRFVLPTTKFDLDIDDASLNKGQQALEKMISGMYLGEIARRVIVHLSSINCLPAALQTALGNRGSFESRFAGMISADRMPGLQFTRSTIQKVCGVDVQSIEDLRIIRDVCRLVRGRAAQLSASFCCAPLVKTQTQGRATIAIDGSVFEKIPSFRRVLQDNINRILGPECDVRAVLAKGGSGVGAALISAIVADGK

[6] = HeLa cell cytotoxicity, dose response, cytotoxicity control for MgcRacGAP inhibitor project (AID 624300); assay type: functional
[7] = target: Phosphoethanolamine/phosphocholine phosphatase (Homo sapiens, UniProt Q8TCT1); assay: SAR assay for compounds that inhibit PHOSPHO1. [Related pubchem assays (depositor defined):AID1545, AID1565, AID1574]
Phosphoethanolamine/phosphocholine phosphatase, sequence (Q8TCT1 whole entry): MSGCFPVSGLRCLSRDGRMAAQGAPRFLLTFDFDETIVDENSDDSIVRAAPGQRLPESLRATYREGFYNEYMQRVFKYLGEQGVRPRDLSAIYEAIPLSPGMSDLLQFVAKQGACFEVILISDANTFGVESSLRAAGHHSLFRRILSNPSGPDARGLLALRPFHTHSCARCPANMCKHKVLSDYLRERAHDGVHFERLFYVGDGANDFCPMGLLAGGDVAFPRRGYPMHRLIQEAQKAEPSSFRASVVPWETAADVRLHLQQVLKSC

[8] = target: DNA dC->dU-editing enzyme APOBEC-3A (Homo sapiens, UniProt P31941); assay: APOBEC3A DNA deaminase inhibitors, dose response, biochemical (AID 504722); assay type: functional
DNA dC->dU-editing enzyme APOBEC-3A, sequence (P31941 whole entry): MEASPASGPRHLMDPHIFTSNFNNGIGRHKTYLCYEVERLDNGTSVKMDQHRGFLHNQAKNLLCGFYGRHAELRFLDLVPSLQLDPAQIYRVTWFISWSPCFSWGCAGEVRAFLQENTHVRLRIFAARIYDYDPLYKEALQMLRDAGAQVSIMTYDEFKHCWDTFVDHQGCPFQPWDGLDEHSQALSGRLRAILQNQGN

[9] = target: Mitochondrial peptide methionine sulfoxide reductase (Bos taurus, UniProt P54149); assay: Absorbance-based biochemical high throughput dose response assay for activators of Methionine sulfoxide reductase A (MsrA).; assay type: functional
Mitochondrial peptide methionine sulfoxide reductase, sequence (P54149 whole entry, the tested form may be a part): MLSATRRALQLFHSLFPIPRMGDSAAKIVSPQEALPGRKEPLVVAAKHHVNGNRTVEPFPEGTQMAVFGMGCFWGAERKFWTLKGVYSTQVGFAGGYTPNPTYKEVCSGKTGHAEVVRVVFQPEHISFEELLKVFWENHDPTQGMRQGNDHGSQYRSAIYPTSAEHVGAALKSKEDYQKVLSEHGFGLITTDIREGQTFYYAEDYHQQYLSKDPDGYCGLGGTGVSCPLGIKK

[10] = Fluorescence-based cell-based high throughput dose response assay for inhibitors of the interaction of nucleotide-binding oligomerization domain containing 2 (NOD2) and the receptor-interacting serine-threonine kinase 2 (RIPK2).; assay type: functional; details: Homo sapiens
[11] = tested on: CHO; assay: cytotoxicity in TLR9-MyD88 CHO cells, dose response, cytotoxicity control for TLR9-MyD88 binding inhibitor project, cell-based, luminescence (AID 588339); assay type: functional, hamster; details: Cricetulus griseus;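 also: CHO cells stably coexpressing TLR9 and MyD88 fusions from primary screen; compound exposure lasted 48 hours before viability readout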
[12] = target: DNA dC->dU-editing enzyme APOBEC-3G (Homo sapiens, UniProt Q9HC16); assay: Dose Response confirmation of small molecule APOBEC3G DNA Deaminase Inhibitors via a fluorescence-based single-stranded DNA deaminase assay. [Related pubchem assays (depositor defined):AID493012, AID493028]; assay type: functional
DNA dC->dU-editing enzyme APOBEC-3G, sequence (Q9HC16 whole entry): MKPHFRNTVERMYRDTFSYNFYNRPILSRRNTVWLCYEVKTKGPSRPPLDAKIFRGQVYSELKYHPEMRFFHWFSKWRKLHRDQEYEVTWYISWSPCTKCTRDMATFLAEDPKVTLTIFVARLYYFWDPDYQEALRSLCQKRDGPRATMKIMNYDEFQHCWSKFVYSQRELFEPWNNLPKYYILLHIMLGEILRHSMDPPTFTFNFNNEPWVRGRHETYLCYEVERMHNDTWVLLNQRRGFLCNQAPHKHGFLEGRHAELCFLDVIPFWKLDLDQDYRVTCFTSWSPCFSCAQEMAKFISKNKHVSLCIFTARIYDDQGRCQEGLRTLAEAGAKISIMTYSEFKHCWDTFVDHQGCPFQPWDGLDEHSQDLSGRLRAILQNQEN

[13] = target: T5, Rac GTPase-activating protein 1 (Homo sapiens, UniProt Q9H0H5); assay: MgcRacGAP GTPase-activating activity inhibitors, confirmation, biochemical, ADP Hunter fluorescence, primary and confirmatory (AID 624330); assay type: functional
T5 sequence (Q9H0H5 whole entry): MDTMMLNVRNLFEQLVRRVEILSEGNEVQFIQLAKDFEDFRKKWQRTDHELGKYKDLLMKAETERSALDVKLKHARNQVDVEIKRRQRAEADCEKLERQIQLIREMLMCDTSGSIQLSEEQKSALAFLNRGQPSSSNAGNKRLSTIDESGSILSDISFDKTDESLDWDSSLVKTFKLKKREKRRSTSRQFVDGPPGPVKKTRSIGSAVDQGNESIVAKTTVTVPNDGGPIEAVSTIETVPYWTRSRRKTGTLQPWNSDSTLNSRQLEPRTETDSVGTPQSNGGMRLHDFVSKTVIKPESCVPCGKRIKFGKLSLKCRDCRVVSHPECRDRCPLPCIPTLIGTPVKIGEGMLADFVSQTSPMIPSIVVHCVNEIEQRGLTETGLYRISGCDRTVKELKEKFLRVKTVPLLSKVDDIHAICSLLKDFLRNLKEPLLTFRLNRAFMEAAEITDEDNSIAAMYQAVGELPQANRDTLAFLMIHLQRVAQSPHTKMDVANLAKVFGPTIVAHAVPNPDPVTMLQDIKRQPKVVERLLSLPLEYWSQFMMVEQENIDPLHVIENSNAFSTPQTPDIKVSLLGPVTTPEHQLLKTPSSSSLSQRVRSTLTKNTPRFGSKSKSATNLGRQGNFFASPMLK

[14] = tested on: Vero; assay: Vero E6 cell cytotoxicity, SAR follow-up, cytotoxicity control for West Nile virus antiviral project, synthesized analogs (AID 2244); assay type: functional; details: Chlorocebus sabaeus
[15] = tested on: Vero; assay: West Nile virus cytopathic effect inhibition, cell-based (AID 2419); assay type: functional; details: Chlorocebus sabaeus
[16] = tested on: Vero; assay: West Nile virus CPE inhibition, SAR follow-up, cell-based, synthesized analogs (AID 2238); assay type: functional; details: Chlorocebus sabaeus
[17] = tested on: Vero; assay: West Nile virus antiviral activity, cell-based, CPE readout (AID 1621); assay type: functional; details: Chlorocebus sabaeus
[18] = tested on: Vero; assay: cytotoxicity of synthesized analogs in Vero cells, SAR follow-up, cytotoxicity control for West Nile virus antiviral project, cell-based, set II (AID 2402); assay type: functional; details: Chlorocebus sabaeus
[19] = tested on: Vero; assay: cytotoxicity of synthesized analogs in Vero 76, SAR follow-up, cytotoxicity control for West Nile virus antiviral project, Vero 76 cells (AID 2414); assay type: functional; details: Chlorocebus sabaeus
[20] = tested on: H9c2; assay: cells; assay type: functional, cell-based; details: Rattus norvegicus, H9c2, Myocardium;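 also: confirmatory concentration-response retest of ultra-high-throughput screening hits for modulation of myocardial damage; cell death induced by hydrogen peroxide oxidative stress; compound pretreatment for 60 min then peroxide exposure for 2 h; potency is for protecting the cells against peroxide damage rather than for killing them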
[21] = target: E3 ubiquitin-protein ligase Mdm2/Protein Mdm4 (Homo sapiens, UniProt O15151+Q00987); assay: Mdm2-MdmX interaction inhibitors, dose response, luminescence detection (AID 504593); assay type: functional
E3 ubiquitin-protein ligase Mdm2/Protein Mdm4, sequence (Q00987 whole entry): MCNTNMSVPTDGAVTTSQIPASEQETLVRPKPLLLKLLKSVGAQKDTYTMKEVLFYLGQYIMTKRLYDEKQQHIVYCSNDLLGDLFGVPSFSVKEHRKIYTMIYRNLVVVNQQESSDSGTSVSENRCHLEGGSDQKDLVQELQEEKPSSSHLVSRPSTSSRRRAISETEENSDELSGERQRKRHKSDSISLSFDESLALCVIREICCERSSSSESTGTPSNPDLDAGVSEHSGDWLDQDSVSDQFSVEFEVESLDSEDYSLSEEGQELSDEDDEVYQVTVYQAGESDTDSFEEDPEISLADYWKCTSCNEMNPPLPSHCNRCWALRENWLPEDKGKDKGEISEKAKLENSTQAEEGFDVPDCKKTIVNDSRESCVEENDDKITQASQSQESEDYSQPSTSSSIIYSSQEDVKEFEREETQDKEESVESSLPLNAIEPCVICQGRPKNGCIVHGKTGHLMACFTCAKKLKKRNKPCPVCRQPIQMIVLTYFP
E3 ubiquitin-protein ligase Mdm2/Protein Mdm4, sequence (O15151 whole entry): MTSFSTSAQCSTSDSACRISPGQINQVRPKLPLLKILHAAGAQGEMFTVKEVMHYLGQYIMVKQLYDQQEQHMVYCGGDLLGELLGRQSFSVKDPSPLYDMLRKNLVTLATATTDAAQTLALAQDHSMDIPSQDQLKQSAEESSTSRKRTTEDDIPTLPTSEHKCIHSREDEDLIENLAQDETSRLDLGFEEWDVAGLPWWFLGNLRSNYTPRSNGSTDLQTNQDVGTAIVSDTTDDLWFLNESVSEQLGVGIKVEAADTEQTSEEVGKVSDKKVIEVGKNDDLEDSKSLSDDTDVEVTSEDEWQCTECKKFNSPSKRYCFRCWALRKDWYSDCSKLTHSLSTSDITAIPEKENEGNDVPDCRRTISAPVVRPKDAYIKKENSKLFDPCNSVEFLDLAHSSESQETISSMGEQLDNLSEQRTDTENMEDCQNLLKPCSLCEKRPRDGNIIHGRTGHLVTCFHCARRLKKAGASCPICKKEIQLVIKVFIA

[22] = target: G-protein coupled receptor 55 (Homo sapiens, UniProt Q9Y2T6); assay: GPR55 antagonists blocking LPI-driven arrestin recruitment, primary screen, imaging, U2OS, beta-arrestin-GFP, LPI agonist (AID 2013); assay type: functional;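 also: antagonist potency measured as reduced agonist-driven arrestin aggregation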
G-protein coupled receptor 55, sequence (Q9Y2T6 whole entry): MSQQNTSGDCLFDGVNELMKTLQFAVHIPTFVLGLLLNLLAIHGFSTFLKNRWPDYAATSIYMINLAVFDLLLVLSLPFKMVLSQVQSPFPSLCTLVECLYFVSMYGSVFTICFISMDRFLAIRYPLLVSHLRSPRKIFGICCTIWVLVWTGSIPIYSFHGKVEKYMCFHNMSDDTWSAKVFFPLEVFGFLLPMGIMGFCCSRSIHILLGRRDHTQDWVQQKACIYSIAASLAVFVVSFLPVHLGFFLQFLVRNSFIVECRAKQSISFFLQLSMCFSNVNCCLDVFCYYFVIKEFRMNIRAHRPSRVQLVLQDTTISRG

[23] = growth suppression of PTEN-null colon cells, dose response, cell-based, HCT116 PTEN knockout (AID 1047); assay type: functional;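 also: HCT116 colon tumor cells with PTEN knocked out; cells exposed to compound for 60 hours before readout; potency for loss of cell viability measured by luminescence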
[24] = inhibitors of SNCA 5'UTR-driven reporter translation, confirmation, H4 neuroglioma cells, luminescence (AID 1988); assay type: functional, cell-based
[25] = growth suppression of beta-catenin-knockout colon cells, dose response, cell-based, HCT116, human colon tumor (AID 1045); assay type: functional;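 also: HCT116 colon tumor cells with beta catenin knocked out; cells exposed to compound for 60 hours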
[26] = inhibitors of firefly luciferase expression or activity, dose response, H4 neuroglioma cells, luminescence (AID 1990); assay type: functional, cell-based
[27] = Luminescence Cell-Based Dose Response HTS to Identify Inhibitors of 5'UTR Stem-Loop Driven Prion Protein mRNA Translation in H4 Neuroglioblastoma Cells. [Related pubchem assays: 1827 (Project Summary), 1813 (Primary HTS)]; assay type: functional

## O=c1c2cc(F)ccc2sn1-c1ccccc1
[1]
  IC50: 88.3 µM (active)
[2]
  IC50: 23.7 µM (inactive)
[3]
  IC50: > 100 µM (inactive)
[4]
  IC50: 23 µM (inactive)
[5]
  IC50: 1.03 µM (active)
[6]
  CC50: 100 µM (active)
[7]
  IC50: 0.792 µM (active)
[8]
  IC50: > 100 µM (inactive)
[9]
  EC50: > 104 µM (inactive)
[10]
  IC50: 4.59 µM (active)
[11]
  IC50: 5.8 µM (active)
[12]
  IC50: 8.82 µM (active)
[13]
  IC50: 35.5 µM (active)

## O=C(CSc1nc2ccccc2c(=O)n1-c1ccc(F)cc1F)Nc1ccc2c(c1)CCC2
[14]
  CC50: > 80 µM (active)
[15]
  IC50: 173 µM (active)
[16]
  IC50: 45 µM (active)
[17]
  IC50: 11.8 µM (active)
[18]
  CC50: > 200 µM (active)
[19]
  CC50: > 16.7 µM (active)

## CC(=O)c1ccc(-c2ccc(C(=O)Nc3nc(-c4ccccn4)cs3)o2)cc1
[20]
  IC50: > 79 µM (inactive)
[21]
  IC50: 3.97 µM (active)

## CCCCNS(=O)(=O)c1ccc(NC(=O)C(Sc2ccccc2)c2ccccc2)cc1 (configuration not stated)
[22]
  IC50: 1.12 µM (active)
[23]
  EC50: 14 µM (active)
[24]
  EC50: 13.9 µM (active)
[25]
  EC50: 12.2 µM (active)
[26]
  EC50: > 120 µM (not active)
[27]
  EC50: > 120 µM (not active)
